Measured values as given in patent US20100305215A1, “DERMAL REGENERATION ENHANCER” (JAPAN SCIENCE AND TECHNOLOGY AGENCY, priority 2005, published 2010).

Test system: skin of colored guinea pigs having melanin pigment-producing cells
Test: Dermal regeneration enhancing action of liquid crystal versus its constituting components on guinea pig skin (Example 4)
Assay type: in vivo, guinea pigs (Weiser Maples)
Conditions: 30 mg on 2 cm×2 cm shaved back; each sample solely applied
Description: Back of colored guinea pigs having melanin pigment-producing cells (Weiser Maples; six weeks age; male) was shaved, the shaved part was washed with lukewarm water and 30 mg of the above lyotropic liquid crystal was applied to an area of 2 cm×5 cm thereof. After 2 days from the application date under irradiation with any of UVA, UVB and UVA+UVB, skin of the part to which the lyotropic liquid crystal was applied was collected and the slice was fixed with formalin, embedded in paraffin and stained by a Fontana-Masson method where melanin pigment was stained out in black to evaluate the dermal regeneration enhancing action.
Back of colored guinea pigs having melanin pigment-producing cells (Weiser Maples, five weeks age, male) was shaved, the shaved part was washed with lukewarm water, each 30 mg of the four kinds of samples of the lyotropic crystal of (A) of Example 1 and the constituting components thereof—surfactant, oil and polyhydric alcohol—was applied to an area of 2 cm×2 cm thereof and the dermal regeneration enhancing action was evaluated by the method mentioned in (A) of Example 1. Cross-sectional pictures of the skin to which each of the samples was applied are shown in FIG. 6 together with the cross-sectional picture of the skin to which nothing was applied.

CC(C)CCCC(C)CCCC(C)CCCCC(C)CCCC(C)CCCC(C)C (centres unmarked) [oil, squalane]
dermal regeneration enhancing action: no dermal regeneration enhancing action was noted

OCC(O)CO [polyhydric alcohol, glycerol]
dermal regeneration enhancing action: no dermal regeneration enhancing action was noted
